Patent US20170189376A1, “BUTYROYLOXYMETHYL DIETHYL PHOSPHATE COMPOUNDS AND USES THEREOF” (MOR RESEARCH APPLICATIONS LTD., priority 2016, published 2017)
Where two headings read alike, the source gives them in different places.

Assays:
[1] = test system: NBS1, Rad51, Mre11, DNA-PK, Ku70 in Hut78 cells; experiment: Western blot of DSB repair proteins, Hut78 cells; type: cell-based, homo sapiens; details: Hut78, 18 and 24 h post treatment
Protocol: (§1) Whole cells extract—Cells were suspended in lysis buffer (Tris-HCl 50 mM, NaCl 150 mM, NP-40 0.5%), incubated for lh on ice, centrifuged and the supernatant was collected. Protease and Phosphatase inhibitors were added to all buffers at a 1:100 dilutions. […] Bands were visualized by Odyssey Infrared Imaging System and the bands intense were normalized to actin.
(§2) To address whether AN-7 interfere in DSBs repair by regulating the expression of DSBs repair proteins, Immunoblot was applied for those proteins. MyLa and Hut78 cells were treated as previously described and subjected to western blot of DSBs repair proteins.

[2] = test system: NBS1, Rad51, Mre11, DNA-PK, Ku70 in MyLa cells; experiment: Western blot of DSB repair proteins, MyLa cells; type: cell-based, human; details: 24 and 48 h post treatment
Protocol: as §1, §2

MyLa cells [3] = experiment: cells; type: cell-based, human; details: trypan blue, column group printed 'AN-7', MyLa
MyLa cells [4] = experiment: MTT-based viability assay, MyLa cells
Protocol: (§5) MyLa cells (10^4), Hut78 cells (5×10^3), SPBL and NPBL (10^5) were seeded in triplicate in 96-well plates. The PBL were activated with PHA 40 μg/10^6 cell for 24 h before the experiment. […] The cells were then placed in a humidified incubator for 72 h. […] The MTT reagent was added to a final concentration of 0.5 mg/mL, and the cells were incubated for an additional 4 h. Thereafter, 0.1N HCl in isopropanol was added, and cell viability was determined using an ELISA reader (PowerWaveX, BioTek, Winooski, Vt., USA) at a 570 nm wavelength with background subtraction at 630-690 nM.
(§6) Viability and apoptosis curves were based on the averages of at least 3 independent experiments. The standard error (SE) was calculated for each group as follows: SE=standard deviation/√n, where n is number of values in the group. […] Significant differences in selectivity among groups were analyzed by comparing the IC50 values using two-tailed unpaired t-test using Excel or by comparing the differential effects for all the dose response titrations using ANOVA with repeated measures.

[5] = test system: p-KAP1, γH2AX in Hut78 cells; experiment: Western blot of p-KAP1 and γH2AX, Hut78 cells; type: cell-based, homo sapiens; details: 0.5 mM AN-7 2 h, 0.5 μM Dox 1 h, or AN-7 1 h followed with Dox 1 h
Protocol: (§3) Cell fraction—3×10^6cells were suspended in 100 μl hypotonic buffer (HEPES 10 mM, KCl 5 mM, MgCl2 1.5 mM, DTT 1 mM, NP-40 1%), incubated for 15 min in ice, centrifuged and the supernatant fraction was subjected to western blot of pKAP1 and actin. The sediment was washed once with hypotonic buffer followed by suspension in 100 μl of hypertonic buffer (HEPES 10 mM, NaCl 500 mM, MgCl2 1.5 mM, DTT 1 mM, NP-40 1%), incubated for 15 min in ice, centrifuged, supernatant was removed and the sediment was boiled, vortexed for 10 min at 95° C. with sample buffer ×3 for 3 times and subjected to western blot of γH2AX.
as §1
(§4) Next, cells were fractionated and fraction lysate were subjected to western blot of phosphorylated KAP1 (p-KAP1), γH2AX and actin.

[6] = test system: p-KAP1, γH2AX in MyLa cells; experiment: Western blot of p-KAP1 and γH2AX, MyLa cells; type: cell-based, human; details: 1 mM AN-7 2 h, 1 μM Dox 1 h, or AN-7 1 h followed with Dox 1 h
Protocol: as §3, §1, §4

Hut78 cells [7] = experiment: FACS analysis with annexin V and PI staining (apoptosis), Hut78 cells
Protocol: (§7) The cells (2.5×10^6 cells/mL) were washed in PBS and binding buffer and were resuspended in binding buffer, and of fluorescein isothiocyanate-conjugated annexin V (5 μL) was added to a 100 μL cell suspension for 10-15 min. Incubation was performed at room temperature under light-protected conditions. The cells were then washed in binding buffer and were resuspended in the binding buffer and propidium iodide (PI) (5 μL) was added. The samples were analyzed by flow cytometry (FACS Calibur 4.1.6, Becton Dickinson): fluorescein-labeled annexin V at a 530 nm wavelength, and PI at a 585 nm wavelength. The percentage of cells was calculated by their distribution in a fluorescence dot plot generated with FCS Express 4 software (De Novo Software, Los Angeles, Calif., USA). Early (annexin V-positive) and late (annexin V+PI-positive) apoptotic cells were summed to yield the total number of apoptotic cells.

SPBL = experiment: FACS annexin V/PI apoptosis ex vivo, PBL of SS patients; type: cell-based, human; details: PBL from 2 SS patients, SAHA 4 μM or AN-7 200 μM, 48 h
Source text: The cells were then stained with annexin V and PI and analysed by FACS.

Hut78 cells [8] = type: cell-based, homo sapiens; details: trypan blue; for IC50: column group printed 'SAHA'
HDAC1 = experiment: Western blot of HDAC1 protein expression in MF/SS cell lines; type: cell-based, human; details: MyLa and Hut78, SAHA 10 μM or AN-7 300 μM
U2OS GFP-reporter cells = experiment: HR activity assay, U2OS GFP-reporter cells; type: cell-based; details: 1 mM AN-7 for 48 h
Protocol: U2OS cells with the linearized HRsub reporter (Puget et al. DNA Repair 4 (2005) 149-161) were transfected with: SceI-expression vector pCBASce; pCBA vector without Sce-I; and GFP control vector, each one separately with FuGENE 6 transfection reagent (Promega). 24 h later 2×10̂5 cells/ml were seeded in 35 mm plates and 6 h later were treated with 1 mM AN-7 for 48 hr. Cells were washed with PBS then harvested with Trypsin solution, neutralized with PBS+10% FBS, centrifuged in 1200 rpm for 10 min, suspended with PBS+10% FBS and GFP-positive cells were quantified by flow cytometry analysis. Cells excitation was done with 488nm laser; the reading of FL1 values was done in 530 nm. Percent of cells with repaired DSB induced by Sce-I via HR are presented as percent of GFP positive cells which are calculated as follow: (%GFP of cells expressing Sce-I pCBASce)−(%GFP of cells expressing empty pCBASce)/(%GFP of cells expressing GFP control vector).
The role of AN-7 in suppressing directly the repair of DSBs, was verified. To this end, one of the machinery for repairing DSBs, the HR repair machinery, was tested. […] The U2OS-GFP cells were transfected with I-SceI plasmid for 24 hours, treated then with AN-7 for another 48 h and then analyzed for GFP expression in FACS analysis. […]

[9] = test system: caspase 3, PARP, P21 and Bax in MF/SS cell lines; experiment: Western blot of pro-apoptotic proteins in MF/SS cell lines; type: cell-based, human; details: MyLa and Hut78, SAHA 10 μM or AN-7 300 μM
Source text: However, there was a stronger signal in response to SAHA.

MyLa cells [10] = experiment: FACS analysis with annexin V and PI staining (apoptosis), MyLa cells
Protocol: as §7

Hut78 cells [11] = experiment: MTT-based viability assay, Hut78 cells
Protocol: as §5, §6

NPBL = experiment: MTT-based viability assay, normal PBL (NPBL); details: for IC50: Normal PBL
Protocol: (§8) Peripheral blood was diluted 1:3 in sterile phosphate-buffered saline (PBS). Lymphoprep was added in the same blood volume with a Pasteur pipette, and the sample was centrifuged. PBL were collected from the white median interphase, rinsed twice with PBS, and suspended in RPMI medium with 10 mM HEPES to 2×10^6 cells/mL.
as §5, §6
(§9) NPBL were treated at same molar ratio as SPBL.

[12] = test system: Sezary syndrome Peripheral blood lymphocytes SPBL; experiment: MTT-based viability assay, Sezary PBL (SPBL); details: for IC50: Sezary PBL
Protocol: as §8, §5, §6, §9

Acetylated H3 = experiment: Western blot of acetylated H3 in nuclear lysate of MF/SS cell lines; details: MyLa and Hut78, SAHA 10 μM or AN-7 300 μM
Protocol: Cells (5×10^6) were suspended in 300 μL of cytoplasmic buffer (HEPES 10 mM, KCl 10 mM, EDTA 1 mM, EGTA 1 mM, DTT 1 mM). After 20 min of incubation on ice, the mixture was passed 5 times through a 25-G syringe and then centrifuged briefly to obtain the cytoplasmic supernatant.
The nuclear pellet was suspended in 40-60 μL of nuclear buffer (cytoplasmic buffer+10% glycerol), incubated with shaking at 4° C. for 15 min, and centrifuged. The supernatant was collected as a nuclear fraction.
Cell extracts were separated by SDS-polyacrylamide gel electrophoresis (SDS-PAGE), transferred to a nitrocellulose membrane, and subjected to immunoblot with primary and secondary antibodies, as listed in table 1.

[13] = long exposure 24 h, read-out: IC50 Long exposure
[14] = read-out: IC50 single treatment (HDACI), MTT 72 h, Table 4

CCCC(=O)OCOP(=O)(OCC)OCC [AN-7, Butyroyloxymethyl diethyl phosphate]
expression of NBS1 and DNA-PK [1]: did not affect the expression of DSB repair proteins
expression of NBS1, Mre11, Rad51 and DNA-PK [2]: did not affect the expression of DSB repair proteins
IC50 (MyLa cells [3]; 4 h then washout and 44 h, read-out: IC50 Short exposure): 141 ± 9.8 µM
IC50 (MyLa cells [3]; [13]): 159 ± 34.8 µM
IC50 (MyLa cells [4]; MyLa cells, MTT, 72 h): 120 ± 5.3 µM
selectivity vs NPBL by dose-response titration (MyLa cells [4]; MyLa vs NPBL, ANOVA with repeated measures): significantly selective
Selectivity index (SI) (MyLa cells [4]; SI=IC50 NPBL/IC50 MyLa): 1.7
IC50 (MyLa cells [4]; read-out: IC50 single treatment (HDACI), MyLa, MTT 72 h, Table 4): 81.7 ± 4.4 µM
induction and persistence of p-KAP1 and γH2AX [5]: did not affect the expression of p-KAP1 and γH2AX
induction and clearance of p-KAP1 [6]: did not affect the expression of p-KAP1 and γH2AX
induction and clearance of γH2AX [6]: did not affect the expression of p-KAP1 and γH2AX
apoptosis after short exposure compared to long exposure (fold less) (Hut78 cells [7]; Hut78, annexin V + PI): no significant difference
apoptosis (Hut78 cells [7]; Hut78, SAHA 10 μM or AN-7 300 μM): about 60%
apoptosis induction in SPBL ex vivo (SPBL): directed more SPBL cells into apoptotic death than SAHA
IC50 short exposure/IC50 long exposure (Hut78 cells [8]): 1.3
IC50 (Hut78 cells [8]; 4 h then washout and 20 h, read-out: IC50 Short exposure): 88 ± 4.6 µM
IC50 (Hut78 cells [8]; [13]): 67 ± 2.5 µM
HDAC1 expression level (HDAC1): downregulated
proportion of cells expressing GFP (frequency of HR repair of I-SceI-induced DSBs) (U2OS GFP-reporter cells): significantly reduce
expression of pro-apoptotic proteins (western blot) [9]: cleavage of caspase 3 and poly ADP-ribose polymerase (PARP) and the production of P21 and Bax
apoptosis (MyLa cells [10]; SAHA 10 μM or AN-7 300 μM): about 60%
apoptosis after short exposure compared to long exposure (fold less) (MyLa cells [10]; annexin V + PI): no significant difference
IC50 (Hut78 cells [11]; Hut78 cells, MTT, 72 h): 59 ± 4.3 µM
selectivity vs NPBL by dose-response titration (Hut78 cells [11]; Hut78 vs NPBL, ANOVA with repeated measures): significantly selective
Selectivity index (SI) (Hut78 cells [11]; SI=IC50 NPBL/IC50 Hut78): 3.4
IC50 (Hut78 cells [11]; read-out: IC50 single treatment (HDACI), Hut78, MTT 72 h, Table 4): 59 ± 4.3 µM
IC50 (NPBL; MTT, 72 h): 200 ± 2.8 µM
NPBL survival at high doses (NPBL; high doses lethal to Hut78 and MyLa cells): 50%
IC50 (NPBL; [14]): 191 ± 26.1 µM
Selectivity index (SI) ([12]; SI=IC50 NPBL/IC50 Sezary PBL): 3.56
selectivity of induced death vs NPBL ([12]; SPBL vs NPBL, by IC50 values): selective death
IC50 ([12]; MTT, 72 h): 128 µM
lethality of high doses to SPBL ([12]; high doses, MTT 72 h): more lethal to SPBL than high doses of SAHA
IC50 [12, 14]: 128 ± 5.2 µM
expression of acetylated H3 (Acetylated H3): induced
